Molecules are shown by their SMILES.

The target of one assay is T1, mGluR5 receptor (pig) (Sus scrofa, UniProt I3LUI7).
T1 construct: 450 μg of protein from brain homogenate are incubated; from tissue; host or cells: pig brain halves without medulla, cerebellum and pons (homogenate, differential centrifugation)
T1 sequence (I3LUI7 19-1212): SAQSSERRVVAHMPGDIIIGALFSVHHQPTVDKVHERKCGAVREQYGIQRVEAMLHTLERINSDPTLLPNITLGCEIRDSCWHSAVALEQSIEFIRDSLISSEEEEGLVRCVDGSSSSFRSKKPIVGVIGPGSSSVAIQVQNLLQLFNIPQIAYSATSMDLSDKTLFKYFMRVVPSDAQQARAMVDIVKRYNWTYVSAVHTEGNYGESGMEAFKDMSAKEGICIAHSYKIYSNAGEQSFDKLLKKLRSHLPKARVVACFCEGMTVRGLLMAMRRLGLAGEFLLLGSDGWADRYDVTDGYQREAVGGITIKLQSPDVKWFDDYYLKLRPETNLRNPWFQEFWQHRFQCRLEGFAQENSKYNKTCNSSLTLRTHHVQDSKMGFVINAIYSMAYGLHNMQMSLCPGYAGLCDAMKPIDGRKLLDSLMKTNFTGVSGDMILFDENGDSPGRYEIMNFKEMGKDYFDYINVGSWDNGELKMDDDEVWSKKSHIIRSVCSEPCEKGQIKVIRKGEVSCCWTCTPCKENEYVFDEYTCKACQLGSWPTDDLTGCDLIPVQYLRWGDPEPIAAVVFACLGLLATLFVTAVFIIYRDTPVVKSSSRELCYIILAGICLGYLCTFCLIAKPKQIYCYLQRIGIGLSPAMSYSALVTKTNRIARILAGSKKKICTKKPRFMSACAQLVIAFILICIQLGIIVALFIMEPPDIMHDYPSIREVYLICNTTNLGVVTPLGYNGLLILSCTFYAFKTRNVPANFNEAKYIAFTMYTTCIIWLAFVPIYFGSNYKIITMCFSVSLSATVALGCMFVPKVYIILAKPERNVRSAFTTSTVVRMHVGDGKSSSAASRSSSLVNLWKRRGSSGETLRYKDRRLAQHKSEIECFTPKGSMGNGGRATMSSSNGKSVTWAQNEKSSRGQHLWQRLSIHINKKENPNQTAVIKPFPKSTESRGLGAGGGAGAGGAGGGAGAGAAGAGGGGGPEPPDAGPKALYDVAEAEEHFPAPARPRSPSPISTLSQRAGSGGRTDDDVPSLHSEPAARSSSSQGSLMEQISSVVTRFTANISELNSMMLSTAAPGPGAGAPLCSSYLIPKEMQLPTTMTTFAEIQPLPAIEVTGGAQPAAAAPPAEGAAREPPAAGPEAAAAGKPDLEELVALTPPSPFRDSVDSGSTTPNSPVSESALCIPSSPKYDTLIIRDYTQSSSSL
The experiment in a line: Inhibition of [3H]-MPEP binding in the mGluR5 receptor binding assay (pig brain homogenate). The following applies: 5 nM [3H]-MPEP, 60 min, room temperature, read-out: IC50 mGluR5 receptor (pig) [3H]-MPEP bonding. On the procedure:
I. Method for Determining the Inhibition of the [^3H]-MPEP Binding in the mGluR5 Receptor Binding Assay
Pig brain homogenate is produced by the homogenisation (Polytron PT 3000, Kinematica AG, 10,000 rpm for 90 seconds) of pig brain halves without medulla, cerebellum and pons, in a buffer with pH 8.0 (30 mM Hepes, Sigma, order no. H3375+1 “Complete Tablet” to 100 ml, Roche Diagnostics, order no. 1836145) in the ratio 1:20 (brain weight/volume) and differential centrifuging at 900×g and 40,000×g. 450 μg of protein from brain homogenate are incubated in 250 μl incubation preparation in 96-well microtiter plates, for 60 minutes at room temperature in a buffer (as above), along with 5 nM ^3[H]-MPEP (Tocris, order no. […]
Subsequently, the preparations are filtered on unifilter plates with fibreglass filter mats (Perkin Elmer, order no. 6005177) using a Brandel Cell Harvester (Brandel, TYP Robotic 9600) and subsequently washed with buffer (as above) 3 times with 250 μl per sample in each case. The filter plates are subsequently dried for 60 min at 55° C. Subsequently 30 μl Ultima Gold™ scintillator (Packard Bioscience, order no. 6013159) are added to each well, and after 3 hours the samples are measured with the β-counter (Mikrobeta, Perkin Elmer). The non-specific binding is determined by adding 10 μM MPEP (Tocris, order no. 1212).
With `CN(CCCN(C)c1nccs1)C(=O)C#Cc1ccccc1` [Example 1], the IC50 is 0.99 µM.

For the molecule `O=C(C#Cc1ccccc1)N1CCC(Nc2nccs2)CC1` [Example 2, 4-(thiazol-2-yl-amino)-1-(3-phenyl-propiolyl)piperidine], the IC50 worked out at 3.04 µM. In the case of `O=C(C#Cc1ccccc1)N1CC2CN(c3nccs3)CC2C1` (stereo not drawn) [Example 3, 3-(thiazol-2-yl)-7-(3-phenyl)-propiolyl-3,7-diaza-bicyclo[3.3.0]octane], the IC50 turned out to be 4.46 µM. On to `CN(c1nccs1)C1CCN(C(=O)C#Cc2ccccc2)CC1` [Example 4, 4-(methyl-thiazol-2-yl-amino)-1-(3-phenyl-propiolyl)piperidine], for which the IC50 was 4.22 µM.

On to `O=C(C#Cc1ccccc1)NC1CCN(c2nccs2)CC1` [Example 5, 3-phenyl-N-(1-(thiazol-2-yl)piperidin-4-yl)propiolamide], for which the IC50 came to 7.41 µM.

For the molecule `CN(C(=O)C#Cc1ccccc1)C1CCN(c2nccs2)CC1` [Example 6, N-methyl-3-phenyl-N-(1-(thiazol-2-yl)piperidin-4-yl)propiolamide], the IC50 worked out at 1 µM.

The same assay, now with this note: 1 μM test compound, 5 nM [3H]-MPEP, 60 min, room temperature, read-out: % inhibition of mGluR5 receptor (pig) [3H]-MPEP bonding at 1 μM.
As for `Cc1csc(N2CCC(NC(=O)C#Cc3ccccc3)CC2)n1` [Example 10, N-(1-(4-methyl-thiazol-2-yl)piperidin-4-yl)-3-phenyl-propiolamide], the inhibition at 1 µM amounted to 36%. Same read-out and setting: as for `COc1cccc(C#CC(=O)NC2CCN(c3nc(C)cs3)CC2)c1` [Example 11, N-(1-(4-methyl-thiazol-2-yl)piperidin-4-yl)-3-(3-methoxyphenyl)-propiolamide], the figure is 26%; as for `Cc1csc(N2CCC(NC(=O)C#Cc3ccccc3F)CC2)n1` [Example 16, 3-(2-fluoro-phenyl)-N-(1-(4-methyl-thiazol-2-yl)piperidin-4-yl)-propiolamide], 22%; as for `Cc1csc(N2CCC(NC(=O)C#Cc3ccc(C)c(F)c3)CC2)n1` [Example 20, 3-(3-fluoro-4-methyl-phenyl)-N-(1-(4-methyl-thiazol-2-yl)piperidin-4-yl)-propiolamide], 39%. On to `Cc1csc(N2CCC(NC(=O)C#Cc3cccc(C(F)(F)F)c3)CC2)n1` [Example 21, N-(1-(4-methyl-thiazol-2-yl)piperidin-4-yl)-3-(3-trifluoromethyl-phenyl)-propiolamide], for which the inhibition at 1 µM turned out to be 32%. `Cc1cccc(C#CC(=O)NC2CCN(c3nc(C)cs3)CC2)c1` [Example 22, N-(1-(4-methyl-thiazol-2-yl)piperidin-4-yl)-3-(3-tolyl)-propiolamide]: the inhibition at 1 µM is 79%.

For orientation: IC50 means the concentration that inhibits the measured activity by half. As usually defined, the inhibition is the percentage by which the read-out fell short of the control.

(Values after patent US8318774B2, “Compounds involving mGluR5 receptor regulation and methods of making the compounds” (Gruenenthal GmbH, priority 2006, dated 2012).)
